Earlier results in patent US10300299B2, “Advanced methods and systems for treating cell proliferation disorders” (priority 2008, dated 2019).
Blank lines part the entries; values can stand above or below the compound they belong to.

How the values were obtained:
[1] = tested on: rapidly dividing tissue; conditions: in vivo
[2] = not given; remark: listed apart in the source
[3] = not given; remark: listed apart in the source

duration of skin photosensitivity: approximately 2 weeks
Compound: Oc1cccc(-c2c3nc(c(-c4cccc(O)c4)c4ccc([nH]4)c(-c4cccc(O)c4)c4nc(c(-c5cccc(O)c5)c5ccc2[nH]5)CC4)C=C3)c1 [Foscan, Tetra (m-hydroxyphenyl) chlorin]
Length of photosensitization (Table 3, known photosensitizers): 2 weeks

uptake in rapidly dividing tissue [1]: increased uptake
Compound: C/C1=C2/[N-][C@H]([C@H](CC(N)=O)[C@@]2(C)CCC(=O)NC[C@@H](C)OP(=O)([O-])O[C@H]2[C@@H](O)[C@@H](n3cnc4cc(C)c(C)cc43)O[C@@H]2CO)[C@]2(C)N=C(/C(C)=C3N=C(/C=C4N=C1[C@@H](CCC(N)=O)C\4(C)C)[C@@H](CCC(N)=O)[C@]\3(C)CC(N)=O)[C@@H](CCC(N)=O)[C@]2(C)CC(N)=O.[CH3-].[Co+3] [methylcobalamin]

Compound: Cobalt-57-cyanocobalamin
uptake in rapidly dividing tissue [1]: increased uptake

water solubility [2]: water soluble
excretion ([3]; in excess): excreted by gloinerular filtration
Compound: Vitamin B12
toxicity ([3]; in vivo): no known toxicity
